Measurements reported in the METLIN SMRT retention time set (Domingo-Almenara et al. 2019).

Experiment: gradient 5% acetonitrile 3 min, to 50% in 2 min, to 85% in 15 min, held 3 min, 100 µL/min
Details: column: Zorbax Extend-C18 2.1 x 50 mm; eluents: water / acetonitrile, 0.1% formic acid
Procedure, shortened: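 Retention times come from adduct peaks that were picked computationally and then checked by hand. The standards, pure and pooled in mixtures of ~100 molecules, were run on a Zorbax Extend-C18 column (2.1 × 50 mm, 1.8 μm) at 100 μL/min with water and acetonitrile, each with 0.1% formic acid. Detection was by quadrupole time-of-flight mass spectrometry in positive and negative ionization mode, with a dead volume of 40 μL and a dwell volume of 900 μL.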

| Compound | RP-LC retention time |
| --- | --- |
| Cc1c(-c2cccc(NC(=O)c3cccc(Br)c3)c2)nc2ncccn12 | 696 s |
| CSc1ncc(Cl)c(C(=O)Nc2cc(C)on2)n1 | 783 s |
| COc1cc(NC(=O)c2ccc(-c3ccc(Cl)cc3)o2)cc(OC)c1 | 1170 s |
| CCN1C(=O)c2cc(S(=O)(=O)Nc3cc(C)ccc3C)ccc2Oc2cccnc21 | 1100 s |
| CCCC(=O)Nc1nnc(SCc2nnc(-c3ccccc3)o2)s1 | 779 s |
| Cc1cccc(Oc2nccnc2Sc2ccccc2C(=O)N2CCN(c3ccccn3)CC2)c1 | 761 s |
| Cc1noc(C)c1CCNC(=O)CCCn1c2ccccc2c2cnn(C)c(=O)c21 | 713 s |
| CC1OC(O[C@H]2C[C@@H](O)[C@]3(CO)[C@H]4[C@H](O)C[C@]5(C)[C@@H](C6=CC(=O)OC6)CC[C@]5(O)[C@@H]4CC[C@]3(O)C2)C(O)C(O)C1O (stereo not given in full) | 594 s |
| O=C(c1cccs1)N1CCN(c2ccc3nnc(-c4ccco4)n3n2)CC1 | 631 s |
| CCCCn1c(=O)c2ccccc2n(Cc2nc(-c3cccc(Cl)c3)no2)c1=O | 1250 s |
| CCN(CC)C(=O)c1ccc2c(c1)N(CC(=O)N1CCCCC1)C(=O)C1CCCCN21 (stereo not given) | 795 s |
| COc1ccccc1-c1nnc(SCc2cccc(C(F)(F)F)c2)o1 | 991 s |
| CCCCN(C)C(=O)Cn1nc(C)c2c(C)n(-c3ccccc3)nc2c1=O | 787 s |
| COc1ccc(-c2ccnc3nc(Cc4ccc(F)cc4)nn23)c(F)c1 | 906 s |
| Cc1cccc(-c2nc(Cn3nnc(C(=O)NCc4ccc(C(C)C)cc4)c3C)c(C)o2)c1 | 1310 s |
| CCCS(=O)(=O)c1nc2ccc(NS(=O)(=O)c3ccc4c(c3)CCC4)cc2s1 | 999 s |
| Cc1ccc(-c2noc(CN3C(=O)C(C)Oc4ccccc43)n2)cc1C (stereo not given) | 1180 s |
| CCCCN(C)C(=O)Cn1c(CN(C)C(=O)c2ccco2)nc2ccccc21 | 655 s |
| CC(NC(=O)c1ccc2nc(-c3ccc(Cl)cc3)cn2c1)c1cccnc1 (stereo not given) | 603 s |
| CCN1C(=O)c2cccnc2Sc2cc(NC(=O)Cc3ccccc3C)ccc21 | 898 s |

Second part, the molecule after the results:

| RP-LC retention time | Compound |
| --- | --- |
| 659 s | CC1(C)CC(=O)C2=C(C1)N(Cc1cccnc1)C(=O)C2(NC(=O)C1CCCCC1)C(F)(F)F (stereo not given) |
| 980 s | O=C(CN1C(=O)C2CCCCN2c2ccc(S(=O)(=O)N3CCCCC3)cc21)NC1CCCC1 (stereo not given) |
| 823 s | Cc1ccc(NC(=O)NC2CCN(c3ccccc3)C2=O)c(C)c1 (stereo not given) |
| 989 s | CCSc1nnc(-c2nn(C)c3c2CN(S(=O)(=O)c2cccc(Cl)c2)CC3)n1CC |
| 1060 s | O=C(c1noc2ccc(S(=O)(=O)N3CCCc4ccccc43)cc12)N1CCCC1 |
| 877 s | COc1cc(OC)c(NC(=O)N2CCN(c3ccc(=O)n(-c4ccc(C)cc4)n3)CC2)cc1Cl |
| 581 s | COCCC1(NC(=O)c2ccoc2)CCN(CC2CC2)CC1 |
| 631 s | CCOC(=O)Cc1csc(NC(=O)C2CCN(C(C)=O)CC2)n1 |
| 706 s | O=C(Cn1cccc(-c2nc(-c3ccc(F)cc3)no2)c1=O)NCC1CCCO1 (stereo not given) |
| 676 s | Nc1cc(C2CCN(C(=O)Cc3ccccc3F)CC2)no1 |
| 692 s | CCCNC(=O)c1ncn2c1C(=O)N(C1CC1)C(C)(C(=O)NCc1ccc(F)cc1)C2 (stereo not given) |
| 662 s | O=C(Nc1cccc(Cl)c1F)N1CC(F)(F)C[C@H]1CN1CCCC1 |
| 735 s | CN(C)C(=O)c1cc2c(s1)CCC(C(=O)N1CCN(c3ccccc3)CC1)C2 (stereo not given) |
| 672 s | O=C(c1nc2nc(-c3cccs3)cc(C(F)(F)F)n2n1)N1CCN(c2ccccn2)CC1 |
| 542 s | Cc1ccnc(N2CCCC(C(=O)N3CCC(C(N)=O)(N4CCCCC4)CC3)C2)n1 (stereo not given) |
| 865 s | CCc1ccc(CNC(=O)c2cc3n(n2)CC(C)(C(=O)NC2CCCC2)N(CC)C3=O)cc1 (stereo not given) |
| 618 s | Oc1cc2c(c(Cl)c1O)CCNCC2c1ccccc1 (stereo not given) |
| 799 s | Cc1ccccc1CNC(=O)Cn1nc(C(=O)N2CCCC2)c2ccccc21 |
| 1240 s | CCCN(C(=O)CC(=O)OC)c1nc(-c2ccc(Br)cc2)cs1 |
| 945 s | COc1cc(Cl)c(C)cc1NC(=O)C1CCN(c2c(C(=O)N3CCOCC3)cnc3snc(C)c23)CC1 |
| 683 s | COc1ccc(N2CCN(C(=O)c3cn4nc(OC)ccc4n3)CC2)cc1 |
| 935 s | COc1ccc(Cl)cc1S(=O)(=O)N1CCCC(C(=O)NCCc2ccccc2)C1 (stereo not given) |
| 721 s | CC(=O)N1CCc2c([nH]c3ccccc23)C12C(=O)Nc1ccccc12 (stereo not given) |
| 739 s | O=C(Nc1ccccc1NC(=O)C1CC(=O)N(c2ccc(F)cc2)C1)c1ccsc1 (stereo not given) |
| 731 s | CCOC(=O)N1CCC(Nc2c(C(=O)OC)c(=O)[nH]c3c(Cl)cccc23)CC1 |
